The supplement of paper PMC10307832

Legend:
Test in all cases: relative viability (nuclei count vs DMSO), 5 days (fraction); higher = more cells survive
XMD14-99 + Olaparib = compound: CN1CCN(CC1)C2=CC(=C(C=C2)NC3=NC(=C(S3)C(=O)C4=C(C=CC=C4Cl)Cl)N)OC [XMD14-99] + O=C(c1cc(Cc2n[nH]c(=O)c3ccccc23)ccc1F)N1CCN(C(=O)C2CC2)CC1 [Olaparib] (partner 8 µM)
In short: (§1)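 For relative viability, nuclei counts in treated wells were divided by those in vehicle wells. Lung cancer cell lines had been pin-tool dosed in 1536-well plates the day after seeding and cultured for 5 days, then fixed and stained in one step (final 0.05% Triton X-100, 1% formaldehyde, 1 ug/ml Hoechst) and imaged at 4×. Doses were one drug alone or a fixed anchor-drug dose plus five library-drug doses (not always all listed) in √10 steps, and values are duplicate-plate medians.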

XMD14-99 + Pemetrexed = compound: CN1CCN(CC1)C2=CC(=C(C=C2)NC3=NC(=C(S3)C(=O)C4=C(C=CC=C4Cl)Cl)N)OC [XMD14-99] + Nc1nc2[nH]cc(CCc3ccc(C(=O)N[C@@H](CCC(=O)O)C(=O)O)cc3)c2c(=O)[nH]1 [Pemetrexed] (partner 0.2 µM)
In short: as §1

AZD1208 + Vorinostat = compound: N[C@@H]1CCCN(c2c(/C=C3\SC(=O)NC3=O)cccc2-c2ccccc2)C1 [AZD1208] + O=C(CCCCCCC(=O)Nc1ccccc1)NO [Vorinostat] (partner 1 µM)
In short: as §1

AZD1208 + Pictilisib = compound: N[C@@H]1CCCN(c2c(/C=C3\SC(=O)NC3=O)cccc2-c2ccccc2)C1 [AZD1208] + CS(=O)(=O)N1CCN(Cc2cc3nc(-c4cccc5[nH]ncc45)nc(N4CCOCC4)c3s2)CC1 [Pictilisib] (partner 1 µM)
In short: as §1

Cell Line	relative viability (XMD14-99 + Olaparib; first compound 0.08 µM)	relative viability (XMD14-99 + Olaparib; first compound 0.8 µM)	relative viability (XMD14-99 + Olaparib; first compound 2.53 µM)	relative viability (XMD14-99 + Olaparib; first compound 8 µM)	relative viability (XMD14-99 + Pemetrexed; first compound 0.08 µM)	relative viability (XMD14-99 + Pemetrexed; first compound 0.8 µM)	relative viability (XMD14-99 + Pemetrexed; first compound 2.53 µM)	relative viability (XMD14-99 + Pemetrexed; first compound 8 µM)	relative viability (AZD1208 + Vorinostat; first compound 0.08 µM)	relative viability (AZD1208 + Vorinostat; first compound 0.253 µM)	relative viability (AZD1208 + Vorinostat; first compound 0.8 µM)	relative viability (AZD1208 + Vorinostat; first compound 2.53 µM)	relative viability (AZD1208 + Vorinostat; first compound 8 µM)	relative viability (AZD1208 + Pictilisib; first compound 0.08 µM)	relative viability (AZD1208 + Pictilisib; first compound 0.253 µM)	relative viability (AZD1208 + Pictilisib; first compound 0.8 µM)	relative viability (AZD1208 + Pictilisib; first compound 2.53 µM)	relative viability (AZD1208 + Pictilisib; first compound 8 µM)
LXF-289	1.06	1.01	1.11	0.931	0.692	0.862	0.85	0.781	0.791	0.849	0.701	0.715	0.832	0.706	0.724	0.73	0.699	0.724
NCI-H23	0.313	0.325	0.277	0.225	0.687	0.783	0.745	0.494	0.508	0.629	0.614	0.602	0.5	0.413	0.561	0.327	0.358	0.335
NCI-H322M	0.807	0.8	0.75	0.617	0.654	0.57	0.606	0.535	0.934	0.868		0.837	0.821	0.494	0.466	0.463	0.474	0.547
NCI-H522	0.586	0.808	0.594	0.557	0.867	1.04	1.14	1.08	0.691	0.75	0.768	0.828	0.836					
NCI-H727	0.737	0.68	0.712	0.523					0.925	1.14	1.11	1.11	1.03	0.355	0.297	0.262	0.264	0.355
NCI-H1299	0.929	0.969	0.935	0.742										0.731	0.725	0.818	0.653	0.562
NCI-H1563					0.884	0.937	0.787	0.751						0.566	0.545	0.672	0.635	0.629
NCI-H1648	0.95	0.433	0.654	0.316	0.61	0.564	0.554	0.542	0.371	0.491	0.298	0.36	0.89					
NCI-H1703	0.492	0.456	0.622	0.269										0.225	0.242	0.238	0.214	0.198
NCI-H1792	0.486	0.383	0.265	0.0886	1.03	0.72	0.68	0.529						0.255	0.272	0.258	0.218	0.199
NCI-H2342	0.548	0.459	0.484	0.409	0.785	0.748	0.815	0.762	0.831	0.702	0.604	0.799	0.597					
SW 900	0.831	0.845	0.766	0.525	0.518	0.476	0.461	0.471	0.519	0.638	0.35	0.605	0.512					
